This note sets out measurements from ChEMBL document CHEMBL5252615, “Synthesis, biological activity and mechanism of action of novel allosecurinine derivatives as potential antitumor agents” (Bioorg Med Chem, 2023).

What all share (assay type): functional, cell-based
Assay [1] has as its system NB-4. Nature of the assay: Antitumor activity against human NB4 cells assessed as reduction in cell viability incubated for 72 hrs. The following applies: NB-4, 72 h.
The subject of assay [2] is HL-60. As to the kind of experiment: Antitumor activity against human HL-60 cells assessed as reduction in cell viability incubated for 72 hrs. The following applies: HL-60, 72 h.
For assay [3], the system named is THP-1. As to the kind of experiment: Antitumor activity against human THP-1 cells assessed as reduction in cell viability incubated for 72 hrs. To be noted: THP-1, 72 h.
Assay [4] deals with KG-1. Nature of the assay: Antitumor activity against human KG-1 cells assessed as reduction in cell viability incubated for 72 hrs. To be noted: KG-1, 72 h.
In assay [5] the test system is U-937. As to the kind of experiment: Antitumor activity against human U-937 cells assessed as reduction in cell viability incubated for 72 hrs. The following applies: U-937, 72 h.
The subject of assay [6] is K562. As to the kind of experiment: Antitumor activity against human K562 cells assessed as reduction in cell viability incubated for 72 hrs. To be noted: K562, 72 h.
Assay [7] concerns SU-DHL-2. Nature of the assay: Antitumor activity against human SUDHL2 cells assessed as reduction in cell viability incubated for 72 hrs. To be noted: SU-DHL-2, 72 h.
For assay [8], the system named is SK-OV-3. As to the kind of experiment: Antitumor activity against human SK-OV-3 cells assessed as reduction in cell viability incubated for 72 hrs. The following applies: SK-OV-3, 72 h.
The test system of assay [9] is SK-OV-3. As to the kind of experiment: Antitumor activity against taxol-resistant human SK-OV-3 cells assessed as reduction in cell viability incubated for 72 hrs. To be noted: SK-OV-3, 72 h.

Molecules are shown by their SMILES.

For `O=C1O[C@@]23C[C@@H](C=CC2=C1C(O)c1csc2ccccc12)N1CCCC[C@H]13` (stereo not given in full), the IC50 came to 4.45 µM in assay [1]; 20.4 µM in assay [2]; 15.6 µM in [3]; 6.14 µM in assay [4]; 29.6 µM in [5]; 2.37 µM in assay [6]. The values for the IC50 in [7], in [8] and in [9] were 27.9 µM, 22.2 µM and 20.7 µM, respectively.
For `O=C1O[C@@]23C[C@@H](C=CC2=C1C(O)c1ccc([N+](=O)[O-])cc1[N+](=O)[O-])N1CCCC[C@H]13` (stereo not given in full), the IC50 in assay [1] worked out at 12 µM; in assay [2], 10.8 µM; in assay [3], 18 µM; in assay [4] it was 3.08 µM; in [5], 6.36 µM; in assay [6], 10.8 µM. Also, the IC50 in assay [7] amounted to 18.3 µM; in assay [8] it was 7.86 µM; in assay [9], 8.89 µM.
For `Cc1ccc(C(O)C2=C3C=C[C@@H]4C[C@@]3(OC2=O)[C@@H]2CCCCN42)cc1` (stereo not given in full), the IC50 in assay [1] was 13.2 µM; in assay [2], 11.5 µM; in assay [3], 12.7 µM; in assay [4] it was 5.58 µM; in assay [5] it was 11.1 µM; in assay [6] it was 8.35 µM. Also, the IC50 was 19.4 µM in assay [7], 7.58 µM in assay [8] and 8.42 µM in assay [9].
As to `O=C1O[C@@]23C[C@@H](C=CC2=C1C(O)c1cccc(F)c1)N1CCCC[C@H]13` (stereo not given in full), the IC50 in assay [1] amounted to 4.01 µM; in [2], 8.73 µM; in [3], 12 µM; in assay [4], 3.98 µM; in [5] it was 8.73 µM; in assay [6], 4.45 µM. Moreover, the 50% inhibitory concentration (IC50) in [7] is 16 µM; in [8] it was 3.42 µM; in assay [9], 6.52 µM.
As to `O=C1O[C@@]23C[C@@H](C=CC2=C1C(O)c1ccc(F)cc1F)N1CCCC[C@H]13` (stereo not given in full), the half-inhibitory concentration (IC50) in assay [1] was 5.8 µM; in assay [2], 7.66 µM; in [3], 15.8 µM; in assay [4], 2.21 µM; in assay [5] it was 6.99 µM; in assay [6] it was 10.3 µM. Also, the IC50 in assay [7] was 15.3 µM; in assay [8] it was 14.7 µM; in assay [9], 14.9 µM.
As for `O=C1C=C2C=C[C@H]3C[C@@]2(O1)[C@@H]1CCCCN13`, the IC50 is 20.4 µM in assay [1]; 21.2 µM in [2]; above 50 µM in [3]; above 50 µM in assay [4]; 14.9 µM in assay [5]; 38.1 µM in assay [6]. Besides, the results for the IC50 in assay [7], in assay [8] and in [9] were above 50 µM, 35.2 µM and 36.4 µM, respectively.
Consider `O=C1O[C@@]23C[C@@H](C=CC2=C1C(O)c1ccc(Br)cc1)N1CCCC[C@H]13` (stereo not given in full), for which the IC50 came to 6.18 µM in assay [1]; 9.92 µM in [2]; 15.5 µM in assay [3]; 2.27 µM in [4]; 10.8 µM in assay [5]; 2.58 µM in assay [6]. In addition, the IC50 in assay [7] is 15.2 µM; in [8], 14.2 µM; in assay [9], 12.5 µM.
On to `CC[C@@]1(O)C(=O)OCc2c1cc1n(c2=O)Cc2cc3ccccc3nc2-1` [CAMPTOTHECIN], for which the IC50 in [1] stood at 2.01 µM; in assay [2], 0.91 µM; in assay [3] it was 1.89 µM; in [4] it was 2.31 µM; in assay [5], 1.81 µM; in assay [6], 0.58 µM. Besides, the IC50 in assay [7] was 0.94 µM; in [9] it was 4.86 µM.
On to `O=C1O[C@@]23C[C@@H](C=CC2=C1C(O)c1nc2ccccc2s1)N1CCCC[C@H]13` (stereo not given in full), for which the IC50 in assay [3] is 16.4 µM; in assay [5] it was 13.8 µM; in assay [7] it was 18 µM; in [8] it was 21 µM.

One may read the IC50 as the concentration that inhibits the measured activity by half.
